Experimental data as given in patent publication US20150174095A1, “PHARMACEUTICAL COMPOSITIONS FOR THE TREATMENT OF VISUAL SYSTEM DISORDERS” (Allergan, Inc., priority 2013, published 2015).
pIC50: −log10 of the molar value.

What was measured:
[1] = target: T1, human ASCT2 (Homo sapiens, UniProt Q15758); experiment: Whole cell patch-clamp transport currents in HEK cells expressing human ASCT2; assay type: cell-based; settings: for effect on substrate-evoked inward current: HEK ASCT2, with 0.3 mM L-serine; for current in the absence of applied substrate: HEK ASCT2, without L-serine
T1 construct: expressed in transfected cells; host or cells: HEK293 cells stably expressing ASCT2
T1 sequence (Q15758 1-541): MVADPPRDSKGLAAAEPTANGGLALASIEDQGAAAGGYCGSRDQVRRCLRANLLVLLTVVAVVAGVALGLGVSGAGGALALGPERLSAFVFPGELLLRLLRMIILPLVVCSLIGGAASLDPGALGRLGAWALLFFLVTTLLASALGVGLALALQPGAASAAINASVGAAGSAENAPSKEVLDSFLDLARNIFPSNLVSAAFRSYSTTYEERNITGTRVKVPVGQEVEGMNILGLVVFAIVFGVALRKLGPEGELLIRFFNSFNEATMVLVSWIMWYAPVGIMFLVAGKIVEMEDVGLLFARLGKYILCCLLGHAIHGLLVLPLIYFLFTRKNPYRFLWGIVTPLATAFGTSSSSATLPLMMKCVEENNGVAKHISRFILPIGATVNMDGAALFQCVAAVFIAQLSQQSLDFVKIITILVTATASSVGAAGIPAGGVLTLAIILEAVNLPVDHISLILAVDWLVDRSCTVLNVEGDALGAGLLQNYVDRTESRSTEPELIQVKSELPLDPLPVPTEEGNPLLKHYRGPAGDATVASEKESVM
Procedure: (§1) Patch-Clamp Recording in HEK 293 Cells (FIGS. 1A, 1B, 2A and 2B):
(§2) Transport currents were recorded in human embryonic kidney (HEK) cells expressing human ASCT1 or ASCT2 transporter using whole cell patch-clamp. Extracellular solution contains: 140 mM NaCl, 2.0 mM MgCl2, 2.0 CaCl2, 10 mM HEPES, pH 7.4. The recording pipettes were filled with ICM containing: 130 mM NaSCN, 10 mM EGTA, 2 mM MgCl2, 10 mM HEPES, 10 mM L-alanine pH 7.3. The inhibitory effects of compounds were measured without/with 300 μM L-serine and normalized to these by 4-hydroxy-phenyglycine (100%).

[2] = target: T2, human ASCT1 (Homo sapiens, UniProt P43007); experiment: [3H]L-serine transport into HEK cells expressing recombinant human ASCT1; assay type: cell-based; settings: inhibition of [3H]L-serine transport, HEK cells with human ASCT1, n of 3-4; read-out: HEK1A4 ASCT1 IC50
T2 construct: expressed in transfected cells; host or cells: HEK293 cells stably expressing ASCT1
T2 sequence (P43007 1-532): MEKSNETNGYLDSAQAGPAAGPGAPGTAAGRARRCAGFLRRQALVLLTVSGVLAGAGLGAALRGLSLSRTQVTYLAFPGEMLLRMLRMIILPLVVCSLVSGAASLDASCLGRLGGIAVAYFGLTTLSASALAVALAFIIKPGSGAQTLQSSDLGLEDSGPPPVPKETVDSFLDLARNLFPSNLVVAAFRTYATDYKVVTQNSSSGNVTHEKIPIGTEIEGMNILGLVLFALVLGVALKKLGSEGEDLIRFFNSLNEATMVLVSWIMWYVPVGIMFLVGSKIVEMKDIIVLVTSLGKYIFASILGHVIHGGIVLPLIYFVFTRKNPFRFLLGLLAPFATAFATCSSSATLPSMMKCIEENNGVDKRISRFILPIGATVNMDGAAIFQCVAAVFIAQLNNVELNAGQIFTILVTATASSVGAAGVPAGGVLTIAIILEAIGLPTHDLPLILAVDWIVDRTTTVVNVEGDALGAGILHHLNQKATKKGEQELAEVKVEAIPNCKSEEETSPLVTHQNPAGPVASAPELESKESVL
Procedure: (§3) Cell-based assays: the transport of [^3H]L- or D-serine was measured in primary cultures of rat hippocampal astrocytes or in human embryonic kidney (HEK) cells expressing ASCT transporter sub-types. For the astrocyte assays, cells were plated on either 24- or 96-well plates at a density of 50,000 cells per well. For the HEK assays, cells were plated on coated 96-well plates at a density of 80,000 cells/well. Assays were conducted in duplicate at room temperature in assay buffer consisting of: NaCl: 150 mM, KCl: 2 mM; MgCl2: 1 mM; CaCl2: 1 mM; HEPES: Tris buffer: 10 mM, pH7.4. To assess the sodium-dependence of transport, NaCl was replaced in the assay buffer by equimolar choline chloride. Following aspiration of growth medium and 2 washes with assay buffer, cells were incubated with [^3H]L- or D-serine at a final concentration of 1 μM for 5 min (astrocytes) or 1 min (HEK cells), after which the incubation medium was aspirated and the cells washed twice with ice-cold assay buffer. Cells containing radiolabel were solubilized in 100 μl of 1% Triton-X100 and an aliquot counted in a beta counter. IC50 values were determined over a range of at least 6 concentrations and derived from curve-fitting algorithms available in GraphPad Prism 4. Table 2 reflects the IC50 values for the inhibition of [^3H]L-serine transport into astrocytes and HEK cells expressing recombinant human ASCT1 or ASCT2. […]

[3] = target: T1, human ASCT2; experiment: [3H]L-serine transport into HEK cells expressing recombinant human ASCT2; assay type: cell-based; settings: inhibition of [3H]L-serine transport, HEK cells with human ASCT2, n of 3-4; read-out: HEK1A5 ASCT2 IC50
Procedure: as §3

[4] = system: ASCT1/2; experiment: [3H]L-serine transport into primary rat hippocampal astrocytes; assay type: cell-based; settings: for pIC50: inhibition of [3H]L-serine transport, rat astrocytes, 6-12 point curves, n of 3-4, read-out: Astro ASCT1/2 IC50; for inhibition of radiolabelled substrate transport: rat brain astrocytes in culture
Procedure: Cell-based assays: the transport of [^3H]L- or D-serine was measured in primary cultures of rat hippocampal astrocytes or in human embryonic kidney (HEK) cells expressing ASCT transporter sub-types. For the astrocyte assays, cells were plated on either 24- or 96-well plates at a density of 50,000 cells per well. For the HEK assays, cells were plated on coated 96-well plates at a density of 80,000 cells/well. Assays were conducted in duplicate at room temperature in assay buffer consisting of: NaCl: 150 mM, KCl: 2 mM; MgCl2: 1 mM; CaCl2: 1 mM; HEPES: Tris buffer: 10 mM, pH7.4. To assess the sodium-dependence of transport, NaCl was replaced in the assay buffer by equimolar choline chloride. Following aspiration of growth medium and 2 washes with assay buffer, cells were incubated with [^3H]L- or D-serine at a final concentration of 1 μM for 5 min (astrocytes) or 1 min (HEK cells), after which the incubation medium was aspirated and the cells washed twice with ice-cold assay buffer. Cells containing radiolabel were solubilized in 100 μl of 1% Triton-X100 and an aliquot counted in a beta counter. IC50 values were determined over a range of at least 6 concentrations and derived from curve-fitting algorithms available in GraphPad Prism 4. Table 2 reflects the IC50 values for the inhibition of [^3H]L-serine transport into astrocytes and HEK cells expressing recombinant human ASCT1 or ASCT2. Values are IC50's in μM from 6-12 point inhibition curves, with an n of 3-4.

[5] = target: T2, human ASCT1; experiment: Whole cell patch-clamp transport currents in HEK cells expressing human ASCT1; assay type: cell-based; settings: for effect on substrate-evoked inward current: HEK ASCT1, with 0.3 mM L-serine; for current in the absence of applied substrate: HEK ASCT1, without L-serine
Procedure: as §1, §2

[6] = system: LTP in primary visual cortex; experiment: Visual cortex slice physiology: long-term potentiation (LTP); design: species or system rat
Procedure: Following decapitation of the rat, the brain was rapidly removed and immersed in ice-cold artificial cerebrospinal fluid (ACSF) containing 124 mM NaCl, 3 mM KCl, 1.25 mM KH2PO4, 3.4 mM CaCl2, 2.5 mM MgSO4, 26 mM NaHCO3, and 10 mM D-glucose. A block of visual cortex was created by removing the frontal ⅔ portion of the brain and the cerebellum. Coronal visual cortex slices of 375 μm were prepared from adult Sprague Dawley (SD) rats using a vibratome (VT 1000 S; Leica). The slices were maintained in an interface recording chamber perfused with preheated ACSF. Slices were continuously perfused with this solution at a rate of 1.00-1.50 ml/min while the surface of the slices was exposed to warm, humidified 95% O2/5% CO2 and maintained at 31±1° C. Visual cortex slices were allowed to recover for 1 hr before recording began. A single stimulating and recording electrode were placed in layer IV and III, respectively, to generate and record a field excitatory postsynaptic potentials (fEPSPs). […] This was repeated 2 additional times with a 1 minute intertrain interval, and the level of LTP was recorded for at least 30 min. Changes in amplitude of the synaptic response were used to measure the extent of LTP because it was determined to be the more consistent parameter than the slope of the response. […]

Compound	effect on substrate-evoked inward current [1]	current in the absence of applied substrate [1]	pIC50 [2]	pIC50 [3]	pIC50 [4]	inhibition of radiolabelled substrate transport [4]	effect on substrate-evoked inward current [5]	current in the absence of applied substrate [5]	effect on LTP in rat visual cortex slice ([6]; 0.1 and 0.3 μM)	concentration that enhanced LTP in visual cortex ([6]; rat visual cortex slice, as low as) [µM]
O=C(O)[C@@H]1NC[C@H](OCc2cccc(Oc3ccccc3)c2)[C@H]1O (stereo in doubt) [(2R,3S,4S)-3-hydroxy-4-[(3-phenoxybenzyl)oxy]pyrrolidine-2-carboxylic acid]	inhibited the substrate-evoked inward current	evoked an outward current	4.33	4.19	4.97	completely inhibited	inhibited the substrate-evoked inward current	evoked an outward current	–	–
O=C(O)[C@@H]1NC[C@H](OCc2ccc(-c3ccccc3)cc2)[C@H]1O (stereo in doubt) [(2R,3S,4S)-4-(biphenyl-4-ylmethoxy)-3-hydroxypyrrolidine-2-carboxylic acid]	inhibited the substrate-evoked inward current	evoked an outward current	5.44	5.55	6.22	completely inhibited	inhibited the substrate-evoked inward current	evoked an outward current	dose-dependently facilitates long-term potentiation (LTP)	≤ 0.1
